According to article PMC9767416, “Discovery of small molecule mechanistic target of rapamycin inhibitors as anti-aging and anti-cancer therapeutics” (Frontiers in Aging Neuroscience, 2022):
Like-named read-outs stand apart in the source and are kept apart here.

Key:
[1] = tested on: mTORC2 substrate AKT (Ser473 phosphorylation); assay: Immunoblot of phospho-AKT (Ser473), mTORC2 activity in cells; assay type: cell-based, human; conditions: 100 μM; for AKT phosphorylation relative to control cells: after 5 h
Excerpt: For immunoblotting, the following primary and secondary antibodies were used: rabbit polyclonal p70 S6 kinase (#9202), rabbit monoclonal phospho-p70 S6 kinase (Thr389) ([…]), rabbit monoclonal AKT kinase (#4691), rabbit monoclonal phospho-AKT kinase (Ser473) ([…]) obtained from Cell Signaling Technology, Inc., Danvers MA, USA; p21waf1 (sc-56335) obtained from Santa Cruz Biotechnology, Inc., Dallas, TX, USA and mouse monoclonal anti-GAPDH (GTX3066) purchased from GeneTex, Inc., Irvine, CA, USA; goat anti-mouse (170-6516) or anti-rabbit IgG (H + L)-HRP conjugate (170-6515) purchased from BioRad, Hercules, CA, USA.
Cells were harvested 1 and 5 h after treatment. Cells were washed with PBS, harvested into SDS sample lysis buffer (SLB; 2% SDS, 63 mM Tris–HCl, pH 6.8, and 10% glycerol), sonicated, and centrifuged. Protein concentration was determined by BCA assay (Pierce Biotechnology, Rockford, IL, USA); samples were adjusted to equal protein amount (40 μg) with SLB containing dithiothreitol (1% final conc.) and bromophenol blue (0.02% final conc.), and separated by SDS–PAGE in Tris-glycine-SDS buffer (BioRad, 1610772). Proteins were electrotransferred onto a nitrocellulose membrane (0.45 μm NC, Amersham™, GE Healthcare Life Sciences) using wet transfer in Tris-glycine buffer (BioRad, 1810704) with 10% methanol (Sigma, 59304). After blocking with 5% non-fat milk in PBS/Tween-20, proteins were detected using specific antibodies and horseradish peroxidase (HRP)-conjugated secondary antibodies. Peroxidase activity was detected by ECL detection reagents (Thermo Fisher Scientific, Waltham, MA, USA).
BJ, RPE-1, U87, U373, T98, A172, MDA-MB-231, H1299, and DU-145 cells were exposed to compound 3 (100 μM) for 1 and 5 h and the level of AKT serine 473 (Ser473) phosphorylation was assayed by immunoblotting. […] However, in several cell types (BJ, RPE-1, MDA-MB-231, H1299, and DU-145), the AKT phosphorylation was higher after 5 h of exposure than in control cells (Figure 11).

[2] = tested on: C57BL/6 (B6) male mice; assay: Histopathological analysis of spleen, kidney and liver; assay type: in vivo
Experimental: Spleen, kidney, and liver tissue samples from the control and treated animals were fixed in 4% formaldehyde and embedded into paraffin. The analysis and evaluation were performed at the Czech Centre for Phenogenomics, Institute of Molecular Genetics of the CAS, Vestec, using Leica ASP6025 automatic vacuum tissue processor for tissue processing, Leica EG1150 H + C embedding station for embedding, and Leica RM2255 rotary microtome for sectioning (2 μm sections). Standard haematoxylin and eosin (HE) descriptive histopathological staining was done using Leica ST5020 + CV5030 stainer and coverslipped.

[3] = Dissociation constants by spectrophotometric titration; assay type: physicochemical; conditions: 20°C; for pKa: ultrapure water
Experimental: The spectrophotometric titration was used for dissociation constants’ determination, utilizing spectrophotometer Agilent Cary-60 (Agilent Technologies, CA, USA), pH meter WTW InoLab_IDS Multi 9430 (WTW, Czech Republic), and pH electrode SenTix® Mic (WTW, Czech Republic). Data were analyzed by GraphPadPrism 8.0 software (GraphPad Software, CA, USA). The analyzed samples were prepared by adding 20 μL of compound stock solution (2 mg/mL) and 20 μL of 0.1 M hydrochloric acid into the cuvette with ultrapure water (total volume 3.5 mL). The samples were titrated by 0.1 M sodium hydroxide at 20°C while acquiring absorption spectra (190–500 nm) at different pH values. Absorbance at the chosen wavelength was plotted as a function of pH. The inflection point in the given plot was used for pKa value determination.

[4] = Shake-flask partition coefficient logP and distribution coefficient logD (pH 7.4); assay type: physicochemical; conditions: for logD: n-octanol/sodium phosphate buffer pH 7.4; for logP: n-octanol/water
Experimental: Before the initiation of the intended experiments, all solvents were mutually saturated at 21°C. […] For saturation, large stock bottles containing n-octanol and 12% of water/buffer or water/buffer and 12% of n-octanol were shaken for 30 mins on a mechanical shaker and subsequently left to stand on the bench overnight until the phases separated. Approximately 0.50 mg of tested substance was added to the test vessels alongside with 1:1 volume ratio of saturated solvents (250 μL). The test vessels were shaken on the mechanical shaker (Multi Reax, Heidolph Instruments, Schwabach, Germany) for 30 min at the highest speed and then centrifuged for phase separation (16.873 × g for 5 min; Eppendorf 5418 Microcentrifuge, Prague, Czech Republic). Both organic and aqueous phases were sampled for LC-MS analysis. UHPLC-DAD-MS (UHPLC Infinity II 1290, detection by DAD and QqQ 6470; Agilent Technologies, CA, USA; separation on Arion C18 polar column 100 × 2.1 mm, 2.1 μm; Chromservis, Czech Republic) was used for determination of the exact concentration of tested substances. The total quantity of substance (in both phases) was used for logP/logD values calculation.

[5] = tested on: C57BL/6 (B6) male mice; assay: In vivo tolerability study (behaviour, signs of toxicity, body weight)
Experimental: C57BL/6 (B6) male mice, 8–12 weeks old, were obtained from the Institute of Molecular Genetics, Prague, Czech Republic. Experimental protocols were approved by the Institutional Animal Care Committee of the Institute of Molecular Genetics, Prague.
Compounds were dissolved in 20 μL DMSO and completed into 200 μL with corn oil.
During the experiments, mice behavior and possible apparent signs of toxicity were monitored daily. The body weights were determined on days 0, 4, and 8. On day 8, blood (25 μL) was withdrawn using a capillary pipette containing anticoagulant (heparin) from the retroorbital sinus into EDTA-containing tubes. Basic hematological parameters were measured using the Mindray BC-5300 Vet. Mice were then killed, autopsied, and abdominal organs (spleen, liver, and kidney) were removed for visual examination and imaging by a digital camera. Single-cell suspensions from the spleens were prepared by homogenization through a cell strainer (70 μm; BD Biosciences, San Jose, CA, USA). Erythrocytes were osmotically lysed using ammonium chloride-potassium lysis buffer, and the cell suspensions were washed three times in the RPMI-1640 medium and used for further analysis by flow cytometry for selected cell populations.

[6] = mice, all three doses (5, 25, 50 mg/kg p.o.)
[7] = p.o. 5, 25 and 50 mg/kg body weight, days 0, 3, 5

Nc1ccc(C(=O)Nc2cccc(-c3c[nH]c4ncccc34)c2)cc1O [Compound 3, N-(3-(1H-pyrrolo[2,3-b]pyridin-3-yl)phenyl)-4-amino-3-hydroxybenzamide]
effect on Ser473 AKT phosphorylation ([1]; A172, after 1 h): Transient inhibition
effect on Ser473 AKT phosphorylation ([1]; BJ, after 1 h): Transient inhibition
AKT phosphorylation relative to control cells ([1]; BJ): higher
effect on Ser473 AKT phosphorylation ([1]; DU-145, after 1 h): Transient inhibition
AKT phosphorylation relative to control cells ([1]; DU-145): higher
effect on Ser473 AKT phosphorylation ([1]; H1299, after 1 h): Transient inhibition
AKT phosphorylation relative to control cells ([1]; H1299): higher
effect on Ser473 AKT phosphorylation ([1]; MDA-MB-231, after 1 h): Transient inhibition
AKT phosphorylation relative to control cells ([1]; MDA-MB-231): higher
effect on Ser473 AKT phosphorylation ([1]; RPE-1, after 1 h): Transient inhibition
AKT phosphorylation relative to control cells ([1]; RPE-1): higher
effect on Ser473 AKT phosphorylation ([1]; T98, after 1 h): Transient inhibition
rank of the inhibitory effect on Ser473 AKT phosphorylation among cell lines ([1]; T98, after 1 h, inhibitory level kept after 5 h): most potent inhibitory effect
effect on Ser473 AKT phosphorylation ([1]; U87, after 1 h): Transient inhibition
effect on Ser473 AKT phosphorylation ([1]; U373, after 1 h): Transient inhibition
histopathology, spleen ([2]; mice, 25 mg/kg p.o., HE, 100×): mild extramedullar hematopoiesis
histopathology, kidneys ([2]; mice, 25 mg/kg p.o., HE, 200×): narrowing of Bowman’s space (arrow), focal tubular atrophy
histopathology, kidneys ([2]; mice, 50 mg/kg p.o., HE, 200×): multifocal mild tubular damage
histopathology, liver ([2]; mice, 50 mg/kg p.o., HE, 400×): rare incipient centrilobular necrosis
histopathology, liver ([2]; mice, 5, 25, 50 mg/kg p.o., dose-dependent): minimal evidence of damage
histopathology, kidneys ([2]; mice, 5, 25, 50 mg/kg p.o., proportional to dose): most pronounced pathological changes
histopathology, spleen [2, 6]: varying degrees of extramedullary haematopoiesis
pKa ([3]; read-out: pKa1): 3.6 ± 0.29
pKa ([3]; read-out: pKa2): 7.91 ± 0.15
logD ([4]; n-octanol/sodium phosphate buffer, pH 7.4, shake-flask, read-out: logD): 2.15 ± 0.02
logP ([4]; shake-flask, read-out: logP): 2.08 ± 0.07
symptoms of intoxication ([5]; 50 mg/kg body weight, perorally): did not exert any symptoms of intoxication
changes in mice behavior and body weights [5, 7]: no changes
signs of whole body or organ toxicities [5, 7]: no apparent signs

CC(C)n1nc(-c2cc3cc(O)ccc3[nH]2)c2c(N)ncnc21 [Torkinib, torkinib]
histopathology, spleen [2, 6]: minimal to moderate signs of extramedullary haematopoiesis
pKa1 [3]: 3.96 ± 0.02
pKa2 [3]: 10.37 ± 0.18
logD ([4]; shake-flask): 2.75 ± 0.06
logP ([4]; shake-flask): 2.65 ± 0.02
signs of whole body or organ toxicities [5, 7]: no apparent signs
